We go through 16 compounds from patent US6458781B1, “Substituted diarylalkyl amides as calcium channel antagonists” (priority 1998, dated 2002).

The target in data set [1] is T1, L-type calcium channels in A10 cells (Rattus norvegicus, UniProt P22002).
T1 construct: which endogenously expresses L-type calcium channels; host or cells: A10 rat embryonic thoracic aorta smooth muscle cells
The data set is described as follows: L-type Ca2+ channel blocking potency in A10 cells (FLIPR). The format is cell-based. Particulars: read-out: FLPA10 IC50. Summed up:
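Rat A10 aortic smooth-muscle cells endogenously expressing L-type channels were loaded with Oregon Green BAPTA-1 and preincubated with compound for 5 min at 35 °C. Cells were then depolarized with 140 mM KCl buffer. Summed fluorescence above basal over 120 s gave % inhibition versus buffer-treated stimulated wells, with zero influx defined by 1.0×10^−6 M nitrendipine.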

For data set [2], the target named is T2, N-type calcium channels in IMR-32 cells (Homo sapiens, UniProt Q00975).
T2 construct: host or cells: IMR-32 cells differentiated with dibutyryl cAMP and bromodeoxyuridine
T2 sequence (Q00975 whole entry): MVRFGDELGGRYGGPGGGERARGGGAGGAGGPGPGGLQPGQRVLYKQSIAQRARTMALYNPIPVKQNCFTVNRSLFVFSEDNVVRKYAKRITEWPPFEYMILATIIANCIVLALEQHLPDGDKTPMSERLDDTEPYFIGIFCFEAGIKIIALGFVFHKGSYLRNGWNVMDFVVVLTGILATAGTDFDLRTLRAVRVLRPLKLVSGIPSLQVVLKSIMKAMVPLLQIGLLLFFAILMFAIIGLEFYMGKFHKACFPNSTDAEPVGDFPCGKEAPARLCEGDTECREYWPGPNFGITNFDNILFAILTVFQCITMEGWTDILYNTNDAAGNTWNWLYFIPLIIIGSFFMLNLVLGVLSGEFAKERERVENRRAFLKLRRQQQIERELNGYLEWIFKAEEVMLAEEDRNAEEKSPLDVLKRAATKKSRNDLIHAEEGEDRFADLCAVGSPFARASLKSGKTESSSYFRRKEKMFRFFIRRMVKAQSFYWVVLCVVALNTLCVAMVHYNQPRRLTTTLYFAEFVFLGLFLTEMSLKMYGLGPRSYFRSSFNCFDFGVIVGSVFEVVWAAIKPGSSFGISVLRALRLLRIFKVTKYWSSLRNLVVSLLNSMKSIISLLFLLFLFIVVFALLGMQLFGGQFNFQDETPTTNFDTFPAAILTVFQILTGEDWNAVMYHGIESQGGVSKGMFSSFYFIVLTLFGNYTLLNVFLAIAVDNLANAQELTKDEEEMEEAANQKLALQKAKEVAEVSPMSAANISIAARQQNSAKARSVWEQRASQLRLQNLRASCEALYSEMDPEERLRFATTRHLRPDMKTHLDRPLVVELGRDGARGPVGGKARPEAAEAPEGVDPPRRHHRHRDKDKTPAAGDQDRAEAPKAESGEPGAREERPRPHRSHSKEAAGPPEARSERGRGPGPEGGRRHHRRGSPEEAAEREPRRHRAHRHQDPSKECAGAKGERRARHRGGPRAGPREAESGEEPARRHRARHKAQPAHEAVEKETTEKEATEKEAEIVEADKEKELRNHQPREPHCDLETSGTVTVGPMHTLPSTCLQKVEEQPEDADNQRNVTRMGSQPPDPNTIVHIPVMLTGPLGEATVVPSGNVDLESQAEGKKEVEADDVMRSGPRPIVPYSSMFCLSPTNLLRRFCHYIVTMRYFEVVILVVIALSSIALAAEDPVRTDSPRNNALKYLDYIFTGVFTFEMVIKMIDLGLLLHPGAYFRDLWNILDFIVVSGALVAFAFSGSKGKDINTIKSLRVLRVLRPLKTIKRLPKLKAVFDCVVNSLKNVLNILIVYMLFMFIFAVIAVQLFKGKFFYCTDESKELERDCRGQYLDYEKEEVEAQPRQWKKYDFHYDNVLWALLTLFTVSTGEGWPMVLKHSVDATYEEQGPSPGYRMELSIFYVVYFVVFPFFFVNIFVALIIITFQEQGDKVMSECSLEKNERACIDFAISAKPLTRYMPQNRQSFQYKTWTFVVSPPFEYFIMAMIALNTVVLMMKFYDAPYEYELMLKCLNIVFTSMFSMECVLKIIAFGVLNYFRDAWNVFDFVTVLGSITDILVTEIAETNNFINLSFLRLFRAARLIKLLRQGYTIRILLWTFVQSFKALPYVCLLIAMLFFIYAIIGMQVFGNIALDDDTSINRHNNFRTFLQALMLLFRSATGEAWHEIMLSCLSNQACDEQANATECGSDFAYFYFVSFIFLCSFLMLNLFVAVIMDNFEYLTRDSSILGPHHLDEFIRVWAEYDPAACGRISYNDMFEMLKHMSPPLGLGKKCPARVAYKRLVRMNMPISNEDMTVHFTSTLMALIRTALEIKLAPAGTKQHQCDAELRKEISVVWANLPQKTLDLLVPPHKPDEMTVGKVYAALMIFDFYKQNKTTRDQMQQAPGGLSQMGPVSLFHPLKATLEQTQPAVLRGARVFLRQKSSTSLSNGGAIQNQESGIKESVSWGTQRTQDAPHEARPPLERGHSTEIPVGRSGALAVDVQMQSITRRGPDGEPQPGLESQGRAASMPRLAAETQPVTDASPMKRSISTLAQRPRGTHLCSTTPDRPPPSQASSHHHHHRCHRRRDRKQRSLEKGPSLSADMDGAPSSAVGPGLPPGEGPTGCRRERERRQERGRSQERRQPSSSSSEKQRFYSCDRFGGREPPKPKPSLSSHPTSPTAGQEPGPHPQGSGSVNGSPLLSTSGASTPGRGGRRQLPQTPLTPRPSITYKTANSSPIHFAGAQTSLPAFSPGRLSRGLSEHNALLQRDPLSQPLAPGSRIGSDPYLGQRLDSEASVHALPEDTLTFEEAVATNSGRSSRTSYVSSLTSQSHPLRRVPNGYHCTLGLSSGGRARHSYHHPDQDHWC
T2 sequence (P54289 25-956 partner limits assumed): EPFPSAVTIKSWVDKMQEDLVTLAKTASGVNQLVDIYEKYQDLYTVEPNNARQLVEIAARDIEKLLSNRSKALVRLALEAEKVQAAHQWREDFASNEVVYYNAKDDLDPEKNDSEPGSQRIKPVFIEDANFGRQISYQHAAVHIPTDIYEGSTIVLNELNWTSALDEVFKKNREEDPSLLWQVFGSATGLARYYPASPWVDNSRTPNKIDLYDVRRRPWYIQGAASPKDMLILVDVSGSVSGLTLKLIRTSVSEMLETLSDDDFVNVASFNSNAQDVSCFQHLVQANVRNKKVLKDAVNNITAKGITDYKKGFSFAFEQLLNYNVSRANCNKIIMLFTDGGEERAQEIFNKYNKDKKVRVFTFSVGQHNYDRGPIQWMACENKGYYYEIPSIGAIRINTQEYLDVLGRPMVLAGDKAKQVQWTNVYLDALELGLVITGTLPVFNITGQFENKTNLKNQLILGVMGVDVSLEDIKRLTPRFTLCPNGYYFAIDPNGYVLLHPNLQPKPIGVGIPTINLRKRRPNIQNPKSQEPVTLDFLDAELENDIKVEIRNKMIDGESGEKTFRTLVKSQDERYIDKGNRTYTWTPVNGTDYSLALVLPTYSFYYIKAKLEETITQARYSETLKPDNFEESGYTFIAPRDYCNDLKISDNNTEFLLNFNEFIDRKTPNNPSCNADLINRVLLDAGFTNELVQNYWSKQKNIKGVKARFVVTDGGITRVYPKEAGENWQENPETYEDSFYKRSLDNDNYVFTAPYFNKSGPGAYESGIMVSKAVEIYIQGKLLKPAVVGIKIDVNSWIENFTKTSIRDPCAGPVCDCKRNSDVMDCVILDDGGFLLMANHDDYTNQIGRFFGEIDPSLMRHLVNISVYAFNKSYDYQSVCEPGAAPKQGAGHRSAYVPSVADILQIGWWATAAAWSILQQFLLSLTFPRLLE
T2 sequence (P54289 957-1103 partner limits assumed): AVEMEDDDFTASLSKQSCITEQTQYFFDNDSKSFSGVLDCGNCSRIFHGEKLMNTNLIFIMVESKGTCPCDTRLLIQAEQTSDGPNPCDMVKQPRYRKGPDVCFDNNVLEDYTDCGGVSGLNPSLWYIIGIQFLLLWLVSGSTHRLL
T2 sequence (Q02641 whole entry partner): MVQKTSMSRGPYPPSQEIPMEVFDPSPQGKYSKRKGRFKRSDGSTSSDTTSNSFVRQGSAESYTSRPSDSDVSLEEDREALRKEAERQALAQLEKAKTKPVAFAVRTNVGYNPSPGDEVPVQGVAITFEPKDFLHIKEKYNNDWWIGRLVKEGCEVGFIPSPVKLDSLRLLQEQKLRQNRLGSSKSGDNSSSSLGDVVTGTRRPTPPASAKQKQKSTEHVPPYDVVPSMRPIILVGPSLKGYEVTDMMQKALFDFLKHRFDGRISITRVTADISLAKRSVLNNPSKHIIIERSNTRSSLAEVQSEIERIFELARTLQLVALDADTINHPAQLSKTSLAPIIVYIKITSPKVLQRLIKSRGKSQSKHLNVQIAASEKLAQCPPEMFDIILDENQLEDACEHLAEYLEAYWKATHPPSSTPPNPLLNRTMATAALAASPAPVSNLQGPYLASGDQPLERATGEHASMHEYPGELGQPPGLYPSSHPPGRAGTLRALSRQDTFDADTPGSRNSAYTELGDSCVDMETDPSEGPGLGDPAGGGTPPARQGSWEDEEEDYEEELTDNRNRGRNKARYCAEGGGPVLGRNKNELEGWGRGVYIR
The experiment in a line: N-type Ca2+ channel blocking potency in IMR-32 cells using Indo-1. The format is cell-based. Particulars: for IC50: IMR-32 cells, estimated from two data points, read-out: IMR32 IC50 (estimated IC50 values based on two data points); for inhibition at 1 µM / inhibition at 10 µM: IMR-32, IMR-32 cells; for inhibition at 1 µM: read-out: IMR32 % blockage at 1 μM; for inhibition at 10 µM: read-out: IMR32 % blockage at 10 μM. Summed up:
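Differentiated IMR-32 cells loaded with Indo-1 AM were preincubated with compound and 5 μM nitrendipine (L-type block) for 10 min at 30° C in HEPES/Tris pH 7.4 HBSS with 0.5% BSA. Cells were depolarized with KCl/CaCl2, and the 400/490 nm emission ratio rise over basal was measured. IC50 came from a four-parameter logistic fit.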

For `CC(C)C[C@@H](C(=O)N1CCN(C(c2ccc(F)cc2)c2ccc(F)cc2)CC1)N(C)C1CCOCC1` [Example 41, (S)-1-{4-[Bis-(4-fluoro-phenyl)-methyl]-piperazin-1-yl}-4-methyl-2-[methyl-(tetrahydro-pyran-4-yl)-amino]-pentan-1-one], the melting point was 56 to 65 °C. In data set [1], the IC50 stood at 780 nM. Moreover, the IC50 in data set [2] was 2300 nM.
Consider `CC(C)C[C@@H](C(=O)N1CCN(C(c2ccc(F)cc2)c2ccc(F)cc2)CC1)N1CCOCC1` [Example 42, (S)-1-{4-[Bis-(4-fluoro-phenyl)-methyl]-piperazin-1-yl}-4-methyl-2-morpholin-4-yl-pentan-1-one], for which the melting point is 55 to 63 °C. For the same compound, in data set [1], the 50% inhibitory concentration (IC50) was determined as 2000 nM. For the same compound, the IC50 in data set [2] was 3400 nM.
The matching figures for `CCC(C)[C@H](NC(=O)N1CCCCCC1)C(=O)N1CCN(C(c2ccc(F)cc2)c2ccc(F)cc2)CC1` (stereo partly drawn) [Example 43, (S)-Azepane-1-carboxylic acid (1-{4-[bis-(4-fluoro-phenyl)-methyl]-piperazine-1-carbonyl}-2-methyl-butyl)-amide]: 64 to 77 °C, 440 nM and 470 nM.
The corresponding values for `CC(C)C[C@H](NC(=O)N1CCN(c2ccccc2)CC1)C(=O)N1CCN(C(c2ccc(F)cc2)c2ccc(F)cc2)CC1` [Example 44, (S)-4-Phenyl-piperazine-1-carboxylic acid (1-{4-[bis-(4-fluoro-phenyl)-methyl]-piperazine-1-carbonyl}-3-methyl-butyl)-amide] are 83 to 91 °C, 300 nM and 410 nM.
The corresponding values for `CC(C)C[C@H](NC(=O)N1CCCCCC1)C(=O)N1CCN(C2c3ccccc3-c3ccccc32)CC1` [Example 45, (S)-Azepane-1-carboxylic acid {1-[4-(9H-fluoren-9-yl)-piperazine-1-carbonyl]-3-methyl-butyl}-amide] are 63 to 73 °C, 930 nM and 1500 nM.
Take `CC(C)C[C@H](NC(=O)N1CCCCCC1)C(=O)N1CCN(C(c2ccccc2)c2ccccc2)CC1` [Example 48, (S)-Azepane-1-carboxylic acid [1-(4-benzhydryl-piperazine-1-carbonyl)-3-methyl-butyl]-amide]: the melting point fell in the range of 66 to 74 °C. Also, in data set [1], the half-inhibitory concentration (IC50) was 1700 nM. The IC50 in data set [2] is 1200 nM.
The matching figures for `CC(C)C[C@H](NC(=O)OC(C)(C)C)C(=O)N1CCN(C(c2ccc(F)cc2)c2ccc(F)cc2)CC1` [Example 50, (S)-(1-{4-[Bis-(4-fluoro-phenyl)-methyl]-piperazine-1-carbonyl}-3-methyl-butyl)-carbamic acid tert-butyl ester]: 59 to 66 °C, 950 nM and 550 nM.
The matching figures for `CC(C)(C)OC(=O)N[C@@H](Cc1ccccc1)C(=O)N1CCN(C(c2ccc(F)cc2)c2ccc(F)cc2)CC1` [Example 51, (S)-(1-Benzyl-2-{4-[bis-(4-fluoro-phenyl)-methyl]-piperazin-1-yl}-2-oxo-ethyl)-carbamic acid tert-butyl ester]: 54 to 74 °C, 710 nM and 250 nM.
In turn, `CC(C)C[C@H](N)C(=O)N1CCN(C(c2ccc(F)cc2)c2ccc(F)cc2)CC1` [Example 53, (S)-2-Amino-1-{4-[bis-(4-fluoro-phenyl)-methyl]-piperazin-1-yl}-4-methyl-pentan-1-one] returned a melting point of 61 to 68 °C. For the same compound, the IC50 in data set [1] came to 420 nM. Besides, in data set [2], the inhibition at 1 µM is 22% and the inhibition at 10 µM came to 78%.
The compound `CC(C)N[C@@H](Cc1ccccc1)C(=O)N1CCN(C(c2ccc(F)cc2)c2ccc(F)cc2)CC1` [Example 54, (S)-1-{4-[Bis-(4-fluoro-phenyl)-methyl]-piperazin-1-yl}-2-isopropylamino-3-phenyl-propan-1-one] showed a melting point of 45 to 58 °C. Moreover, in data set [1], the half-inhibitory concentration (IC50) was 1300 nM. In addition, in data set [2], the inhibition at 1 µM worked out at 25% and the inhibition at 10 µM stood at 99%.
On to `CC(C)CCN[C@@H](Cc1ccccc1)C(=O)N1CCN(C(c2ccc(F)cc2)c2ccc(F)cc2)CC1.Cl` [Example 55, (S)-1-{4-[Bis-(4-fluoro-phenyl)-methyl]-piperazin-1-yl}-2-(3-methyl-butylamino)-3-phenyl-propan-1-one dihydrochloride], for which the melting point was in the range of 172 to 186 °C. The IC50 in data set [1] is 940 nM. For the same compound, in data set [2], the inhibition at 10 µM turned out to be 104%.
Consider `CC(C)CCN(CCC(C)C)[C@@H](Cc1ccccc1)C(=O)N1CCN(C(c2ccc(F)cc2)c2ccc(F)cc2)CC1.Cl` [Example 56, (S)-1-{4-[Bis-(4-fluoro-phenyl)-methyl]-piperazin-1-yl}-2-[bis-(3-methyl-butyl)-amino]-3-phenyl-propan-1-one dihydrochloride], for which the melting point was 139 to 181 °C. In addition, the half-inhibitory concentration (IC50) in data set [1] is over 3000 nM. Also, in data set [2], the inhibition at 1 µM amounted to 16% and the inhibition at 10 µM is 37%.
In turn, `CC(C)C[C@@H](C(=O)N1CCN(C(c2ccc(F)cc2)c2ccc(F)cc2)CC1)N(Cc1ccc(OC(C)(C)C)cc1)Cc1ccc(OC(C)(C)C)cc1` [Example 57, (S)-2-[Bis-(4-tert-butoxy-benzyl)-amino]-1-{4-[bis-(4-fluoro-phenyl)-methyl]-piperazin-1-yl}-4-methyl-pentan-1-one] showed a melting point of 62 to 67 °C. Further, the half-maximal inhibitory concentration (IC50) in data set [1] was over 3000 nM. Further, the inhibition at 10 µM in data set [2] was found to be 7%.
As to `CC(C)C[C@@H](C(=O)N1CCN(C(c2ccc(F)cc2)c2ccc(F)cc2)CC1)N(Cc1ccc(C(C)(C)C)cc1)Cc1ccc(C(C)(C)C)cc1` [Example 59, (S)-2-[Bis-(4-tert-butyl-benzyl)-amino]-1-{-4-[bis-(4-fluoro-phenyl)-methyl]-piperazin-1-yl}-4-methyl-pentan-1-one], the melting point was 78 to 86 °C. The IC50 in data set [1] was over 3000 nM. For the same compound, in data set [2], the inhibition at 1 µM was -5% and the inhibition at 10 µM was 2%.
On to `COc1cc(CN[C@@H](CC(C)C)C(=O)N2CCN(C(c3ccc(F)cc3)c3ccc(F)cc3)CC2)cc(OC)c1OC` [Example 60, (S)-1-{4-[Bis-(4-fluoro-phenyl)-methyl]-piperazin-1-yl}-4-methyl-2-(3,4,5-trimethoxy-benzylamino)-pentan-1-one], for which the melting point lay in the range of 58 to 62 °C. For the same compound, the IC50 in data set [1] amounted to 220 nM. For the same compound, in data set [2], the inhibition at 1 µM stood at 26% and the inhibition at 10 µM was 95%.
The corresponding values for `O=C([C@H](Cc1ccccc1)NC1CCCCC1)N1CCN(C(c2ccc(F)cc2)c2ccc(F)cc2)CC1` [Example 61, (S)-1-{4-[Bis-(4-fluoro-phenyl)-methyl]-piperazin-1-yl}-2-cyclohexylamino-3-phenyl-propan-1-one] are 60 to 64 °C, 1700 nM, 42% and 102%.

One may read the IC50 as the concentration that inhibits the measured activity by half. One may read the melting point as the temperature, or range, at which the solid turns liquid.
